Source: US12474342B2, “Methods for treating cancer and the use of biomarkers as a predictor of clinical sensitivity to therapies” (CELGENE CORPORATION, priority 2016, dated 2025)
Read-outs that look alike come from different tables or passages of the source.

Legend:
healthy donor PBMCs = assay: Anti-proliferation, healthy donor PBMCs; assay type: cell-based; settings: Homo sapiens, PBMC; healthy donor PBMCs (data not shown)
OCI-AML2 cells = assay: Apoptosis (caspase 3/7 activation), OCI-AML2; assay type: cell-based, human; settings: for EC50: Homo sapiens, read-out: Compound D-induced Apoptosis EC50
OCI-AML3 cells = assay: Apoptosis (caspase 3/7 activation), OCI-AML3; assay type: cell-based, human; settings: OCI-AML3, 123 nM
ATF3 and DDIT3 mRNA [1] = assay: ATF3 and DDIT3 mRNA induction, healthy PBMCs; assay type: cell-based, human; settings: by 8 hours
From the text: (§1) The kinetics of induction of mRNA for UPR factors ATF3 and DDIT3 in HNT-34 cells also strongly differed from that in PBMCs. […] This is also consistent with the reduced cytotoxicity observed for Compound D in normal adult lymphocytes as compared with tumor cells (data not shown).

KG-1a cells = assay: Anti-proliferation 72-hour CTG assay, KG-1a; assay type: cell-based; settings: Homo sapiens, read-out: IC50 of the anti-proliferative effect
Description: A plethora of AML cell lines were treated with serial dilutions of Compound D. IC50 value of the anti-proliferation effect of Compound D (as determined in 72-hour CTG assays) in each cell line is summarized in Table 1.

GSPT1 [2] = target: T1, GSPT1 (Homo sapiens, UniProt P15170+Q96SW2); assay: GSPT1 degradation in NB4 cell line; assay type: cell-based; design: endogenous in cells; settings: NB4 cell line
T1 sequence (P15170 1-637 isoform P15170-3): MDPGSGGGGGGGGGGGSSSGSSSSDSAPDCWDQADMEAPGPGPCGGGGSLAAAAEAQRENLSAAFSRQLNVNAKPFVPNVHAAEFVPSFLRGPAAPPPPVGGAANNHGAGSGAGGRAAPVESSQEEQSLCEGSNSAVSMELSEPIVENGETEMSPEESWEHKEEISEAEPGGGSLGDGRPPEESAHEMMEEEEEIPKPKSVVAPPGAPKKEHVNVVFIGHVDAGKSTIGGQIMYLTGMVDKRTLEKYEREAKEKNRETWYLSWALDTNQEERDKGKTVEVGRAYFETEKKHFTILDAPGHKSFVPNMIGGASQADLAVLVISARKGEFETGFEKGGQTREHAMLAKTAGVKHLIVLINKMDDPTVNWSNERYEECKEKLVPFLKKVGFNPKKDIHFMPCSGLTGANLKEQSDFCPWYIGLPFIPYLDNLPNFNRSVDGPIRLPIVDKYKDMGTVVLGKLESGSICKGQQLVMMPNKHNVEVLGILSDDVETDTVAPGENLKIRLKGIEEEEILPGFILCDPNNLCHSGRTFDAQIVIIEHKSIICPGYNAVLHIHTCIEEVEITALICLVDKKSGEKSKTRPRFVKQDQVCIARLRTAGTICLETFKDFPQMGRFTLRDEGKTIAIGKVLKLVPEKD
T1 sequence (Q96SW2 whole entry): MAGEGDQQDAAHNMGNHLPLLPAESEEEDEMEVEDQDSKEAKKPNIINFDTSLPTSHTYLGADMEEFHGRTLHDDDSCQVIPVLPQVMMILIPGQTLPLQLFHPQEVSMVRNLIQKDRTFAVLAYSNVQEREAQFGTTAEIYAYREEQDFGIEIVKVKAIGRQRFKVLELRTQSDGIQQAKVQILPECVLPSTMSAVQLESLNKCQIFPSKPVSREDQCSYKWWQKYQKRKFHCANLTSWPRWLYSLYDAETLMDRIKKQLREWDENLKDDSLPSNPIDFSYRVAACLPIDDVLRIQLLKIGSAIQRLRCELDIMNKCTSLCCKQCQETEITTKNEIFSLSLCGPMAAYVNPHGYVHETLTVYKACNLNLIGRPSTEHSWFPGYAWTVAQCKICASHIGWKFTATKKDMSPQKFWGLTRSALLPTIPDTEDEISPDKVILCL
T1 sequence (Q16531 whole entry partner): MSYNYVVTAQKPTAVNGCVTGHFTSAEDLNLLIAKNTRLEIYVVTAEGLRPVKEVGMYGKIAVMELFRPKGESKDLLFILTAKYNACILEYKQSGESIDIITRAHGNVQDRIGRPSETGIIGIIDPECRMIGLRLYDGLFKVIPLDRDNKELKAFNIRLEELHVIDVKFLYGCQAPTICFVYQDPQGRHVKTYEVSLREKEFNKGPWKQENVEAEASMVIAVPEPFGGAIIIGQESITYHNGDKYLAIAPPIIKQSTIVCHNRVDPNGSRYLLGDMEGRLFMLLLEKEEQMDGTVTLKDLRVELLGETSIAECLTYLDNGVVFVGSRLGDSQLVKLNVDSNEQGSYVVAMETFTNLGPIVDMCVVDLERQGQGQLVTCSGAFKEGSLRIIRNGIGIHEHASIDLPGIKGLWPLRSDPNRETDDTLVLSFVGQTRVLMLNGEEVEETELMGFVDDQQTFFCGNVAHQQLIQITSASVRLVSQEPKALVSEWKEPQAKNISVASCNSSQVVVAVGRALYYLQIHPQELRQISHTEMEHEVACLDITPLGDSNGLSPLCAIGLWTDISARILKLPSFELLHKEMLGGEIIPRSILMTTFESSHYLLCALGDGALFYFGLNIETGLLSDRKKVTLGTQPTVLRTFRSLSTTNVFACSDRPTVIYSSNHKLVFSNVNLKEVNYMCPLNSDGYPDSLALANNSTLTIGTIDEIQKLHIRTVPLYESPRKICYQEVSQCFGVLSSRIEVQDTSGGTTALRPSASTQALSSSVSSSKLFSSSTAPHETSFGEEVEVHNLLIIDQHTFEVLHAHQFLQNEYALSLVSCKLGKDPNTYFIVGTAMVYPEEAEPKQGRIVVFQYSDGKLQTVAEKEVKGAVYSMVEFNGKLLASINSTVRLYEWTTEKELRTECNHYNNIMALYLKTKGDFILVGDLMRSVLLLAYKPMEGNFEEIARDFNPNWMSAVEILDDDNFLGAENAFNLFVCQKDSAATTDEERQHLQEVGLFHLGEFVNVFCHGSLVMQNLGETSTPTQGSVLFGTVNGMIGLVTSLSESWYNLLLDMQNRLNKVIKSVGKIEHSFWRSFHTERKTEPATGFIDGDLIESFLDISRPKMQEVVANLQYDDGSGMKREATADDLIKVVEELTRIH

GSPT1 [3] = target: T1, GSPT1; assay: GSPT1 protein reduction, western analysis, AML-193; assay type: cell-based; design: reduction in GSPT1 protein level was evaluated in human normal PBMCs; endogenous in cells; host or cells: primary PBMCs from normal donors (ID 4328, 4379) and AML patients (ID 11SH, 09P6)
Description: (§2) The time course of the reduction in GSPT1 by Compound D also was studied for up to 48 hours. The progressive degradation of GSPT1 over the course of 1 to 20 hours was evident in the presence of all concentrations of Compound D studied from 3 to 300 nM in HNT-34, HL-60, and ML-2 cells, with little GSPT1 remaining by 20 hours at 100 or 300 nM Compound D in HNT-34 or HL-60 cells (FIG. 34 and FIG. 35C). Time-dependent reduction in GSPT1 was also observed in KG-1 and OCI-AML2 cells at 3 to 1000 nM Compound D, with little GSPT1 remaining in KG-1 cells at 100 to 300 nM at 24 hours or in OCI-AML2 cells at 300 and 1000 nM at 24 hours (FIG. 35D). Loss of GSPT1 occurred more slowly in Kasumi-1, AML-193, and […] cells. […] A positive association (r^2=0.50; […]

ML-2 cells = assay: Apoptosis (caspase 3/7 activation), ML-2; assay type: cell-based, human; settings: for EC50: Homo sapiens, read-out: Compound D-induced Apoptosis EC50
ATF3 and DDIT3 mRNA [4] = assay: ATF3 and DDIT3 mRNA induction, HNT-34; assay type: cell-based, human
From the text: as §1

GSPT1 [5] = target: T1, GSPT1; assay: GSPT1 protein reduction, western analysis, normal PBMCs
GSPT1 [6] = target: T1, GSPT1; assay: GSPT1 protein reduction, western analysis, HL-60; assay type: cell-based; design: reduction in GSPT1 protein level was evaluated in human normal PBMCs; endogenous in cells; host or cells: primary PBMCs from normal donors (ID 4328, 4379) and AML patients (ID 11SH, 09P6)
Description: as §2, with “FIG. 30C [HL-60]) and 48-hour (FIG. 30B [KG-1]; FIG. 30D [HL-60]) time points. […] The time” for “The time”

For `O=C1CCC(N2Cc3cc(CNC(=O)C(F)(F)c4ccc(Cl)cc4)ccc3C2=O)C(=O)N1` (stereo not shown) [Compound D, 2-(4-chlorophenyl)-N-((2-(2,6-dioxopiperidin-3-yl)-1-oxoisoindolin-5-yl)methyl)-2,2-difluoroacetamide], the IC50 (healthy donor PBMCs) was > 10000 nM, the EC50 (OCI-AML2 cells; OCI-AML2, 48 hr) was 81 nM and the EC50 (OCI-AML2 cells; OCI-AML2, 72 hr) was 41 nM. For the same compound, the EC50 (OCI-AML2 cells; OCI-AML2, 96 hr) was 38 nM, the “Average Percent Increase in Apoptosis at 123 nM Compound D, Apoptosis (12 hr)” value (“Average Percent Increase in Apoptosis … (12 hr)” below) (OCI-AML2 cells; OCI-AML2, 123 nM, 12 hr) was 0% and the “Average Percent Increase in Apoptosis at 123 nM Compound D, Apoptosis (24 hr)” value (shortened to “Average Percent Increase in Apoptosis … (24 hr)”) (OCI-AML2 cells; OCI-AML2, 123 nM, 24 hr) was 3%. For the same compound, the “Average Percent Increase in Apoptosis at 123 nM Compound D, Apoptosis (48 hr)” value (“Average Percent Increase in Apoptosis … (48 hr)” for short) (OCI-AML2 cells; OCI-AML2, 123 nM, 48 hr) was 33%, the “Average Percent Increase in Apoptosis … (12 hr)” value (OCI-AML3 cells; 12 hr) was 0% and the “Average Percent Increase in Apoptosis … (24 hr)” value (OCI-AML3 cells; 24 hr) was 1%. For the same compound, the “Average Percent Increase in Apoptosis … (48 hr)” value (OCI-AML3 cells; 48 hr) was 2%, the “induction of ATF3 or DDIT3 mRNA” value (ATF3 and DDIT3 mRNA [1]) was “no induction” and the IC50 (KG-1a cells) was 21 nM. The “effect on GSPT1 level” value (GSPT1 [2]) was “induced degradation”, the “Percent Reduction at 100 nM Compound D GSPTI (8 hr)” value (GSPT1 [3]; AML-193, 100 nM, 8 hr) was 49% and the GSPT1 reduction (GSPT1 [3]; AML-193, 300 nM Compound D, 8 hours) was 61%. For the same compound, the EC50 (ML-2 cells; ML-2, 24 hr) was 62 nM, the EC50 (ML-2 cells; ML-2, 48 hr) was 31 nM and the EC50 (ML-2 cells; ML-2, 72 hr) was 21 nM. For the same compound, the EC50 (ML-2 cells; ML-2, 96 hr) was 25 nM, the “Average Percent Increase in Apoptosis … (12 hr)” value (ML-2 cells; ML-2, 123 nM, 12 hr) was 2% and the “Average Percent Increase in Apoptosis … (24 hr)” value (ML-2 cells; ML-2, 123 nM, 24 hr) was 17%. For the same compound, the “Average Percent Increase in Apoptosis … (48 hr)” value (ML-2 cells; ML-2, 123 nM, 48 hr) was 51%, the “time of induction of ATF3 and DDIT3 mRNA” value (ATF3 and DDIT3 mRNA [4]) was ≤ 8 h and the “Reduction in GSPT1 Protein Level” value (GSPT1 [5]; PBMC sample 4328 (normal), 100 nM Compound D, 8 hours) was 67%. The “Reduction in GSPT1 Protein Level” value (GSPT1 [5]; PBMC sample 4328 (normal), 100 nM Compound D, 22 hours) was 92%, the “Reduction in GSPT1 Protein Level” value (GSPT1 [5]; PBMC sample 4328 (normal), 300 nM Compound D, 8 hours) was 80% and the “Reduction in GSPT1 Protein Level” value (GSPT1 [5]; PBMC sample 4328 (normal), 300 nM Compound D, 22 hours) was 98%. The “Reduction in GSPT1 Protein Level” value (GSPT1 [5]; PBMC sample 4379 (normal), 100 nM Compound D, 8 hours) was 39%, the “Reduction in GSPT1 Protein Level” value (GSPT1 [5]; PBMC sample 4379 (normal), 100 nM Compound D, 22 hours) was 73% and the “Reduction in GSPT1 Protein Level” value (GSPT1 [5]; PBMC sample 4379 (normal), 300 nM Compound D, 8 hours) was 58%. For the same compound, the “Reduction in GSPT1 Protein Level” value (GSPT1 [5]; PBMC sample 4379 (normal), 300 nM Compound D, 22 hours) was 83%, the “time at which GSPT1 degradation was evident” value (GSPT1 [5]; healthy PBMCs, 10 nM Compound D) was 4 h and the “reduction of GSPT1 protein levels” value (GSPT1 [6]; HL-60, 100 nM Compound D, 4 hours) was “greater than 800”. For the same compound, the “reduction of GSPT1” value (GSPT1 [6]; HL-60, >30 nM Compound D, 8 hours) was “complete reduction”.
